Experimental data as given in patent US20170002421A1, “METHODS AND ASSAYS FOR DETERMINING REDUCED BRCA1 PATHWAY FUNCTION IN A CANCER CELL” (THE GENERAL HOSPITAL CORPORATION, priority 2013, published 2017).

Tests used:
[1] = clinical use, literature refs 34-38; cited from earlier work
[2] = tested on: breast cancer cell line panel; assay: Pharmacologic inhibition assay (Crystal Violet, mean percent viability); format: cell-based, human
Procedure: All cell lines were obtained and maintained as previously described^15. Independent pharmacologic inhibition assays were conducted in triplicate for each cell line. Cells were seeded at 20,000 per well in a 24-well plate. After 24 hours, cells were treated in triplicate with indicated concentrations of: DMSO, temozolomide (SIGMA ALDRICH™, T2577), or AZD-2281 (SELLECK CHEMICALS™, S1060). After five days of incubation, cells were fixed in 4% formaldehyde and stained with 1% Crystal Violet (SIGMA ALDRICH™, C0775) for ten minutes at room temperature. Cells were then washed to remove unincorporated dye and plates were inverted to dry overnight. Incorporated dye was extracted with 10% acetic acid and OD595 measurements were obtained within a linear range. Treated cells were normalized to the vehicle-treated control to obtain mean percent viability.

Row | SMILES | crossing the blood/brain barrier [1] | inhibition (viability) in combination ([2]; 40 nM olaparib combined with 100 uM temozolomide, breast cancer cell line panel (FIG. 4A, lower panel)) | reduction in viability, single administration ([2]; either drug alone, seven of the tested cell lines with Garnett et al. expression data (FIG. 4B, top and middle panel)) | inhibitory effects (viability) ([2]; olaparib alone, 40 nM, five days incubation, breast cancer cell line panel (FIG. 4A, middle panel))
1 | O=C(c1cc(Cc2n[nH]c(=O)c3ccccc23)ccc1F)N1CCN(C(=O)C2CC2)CC1 [olaparib] | evidence of crossing the blood/brain barrier | exerts inhibition | did not demonstrate a significant reduction in viability | does not demonstrate inhibitory effects alone
2 | Cn1nnc2c(C(N)=O)ncn2c1=O [temozolomide] | can cross the blood/brain barrier |  |  | 
